EC50, Emax and activation data for 38 compounds are collected here from patent US20240150377A1, “MODULATORS OF CYSTIC FIBROSIS TRANSMEMBRANE CONDUCTANCE REGULATOR” (VERTEX PHARMACEUTICALS INCORPORATED, priority 2020, published 2024).

Where two headings read alike, the source gives them in different places.

By EC50 is commonly meant the concentration at which the effect is half-maximal.

For the assay, the target named is T1, CFTR (Homo sapiens, UniProt P13569, DEL508-508).
T1 construct: endogenous in cells; host or cells: primary human bronchial epithelial cells from CF subjects (F508del/MF-HBE), differentiated at air-liquid interface
T1 sequence (P13569 with tags, fused parts or gaps DEL508-508): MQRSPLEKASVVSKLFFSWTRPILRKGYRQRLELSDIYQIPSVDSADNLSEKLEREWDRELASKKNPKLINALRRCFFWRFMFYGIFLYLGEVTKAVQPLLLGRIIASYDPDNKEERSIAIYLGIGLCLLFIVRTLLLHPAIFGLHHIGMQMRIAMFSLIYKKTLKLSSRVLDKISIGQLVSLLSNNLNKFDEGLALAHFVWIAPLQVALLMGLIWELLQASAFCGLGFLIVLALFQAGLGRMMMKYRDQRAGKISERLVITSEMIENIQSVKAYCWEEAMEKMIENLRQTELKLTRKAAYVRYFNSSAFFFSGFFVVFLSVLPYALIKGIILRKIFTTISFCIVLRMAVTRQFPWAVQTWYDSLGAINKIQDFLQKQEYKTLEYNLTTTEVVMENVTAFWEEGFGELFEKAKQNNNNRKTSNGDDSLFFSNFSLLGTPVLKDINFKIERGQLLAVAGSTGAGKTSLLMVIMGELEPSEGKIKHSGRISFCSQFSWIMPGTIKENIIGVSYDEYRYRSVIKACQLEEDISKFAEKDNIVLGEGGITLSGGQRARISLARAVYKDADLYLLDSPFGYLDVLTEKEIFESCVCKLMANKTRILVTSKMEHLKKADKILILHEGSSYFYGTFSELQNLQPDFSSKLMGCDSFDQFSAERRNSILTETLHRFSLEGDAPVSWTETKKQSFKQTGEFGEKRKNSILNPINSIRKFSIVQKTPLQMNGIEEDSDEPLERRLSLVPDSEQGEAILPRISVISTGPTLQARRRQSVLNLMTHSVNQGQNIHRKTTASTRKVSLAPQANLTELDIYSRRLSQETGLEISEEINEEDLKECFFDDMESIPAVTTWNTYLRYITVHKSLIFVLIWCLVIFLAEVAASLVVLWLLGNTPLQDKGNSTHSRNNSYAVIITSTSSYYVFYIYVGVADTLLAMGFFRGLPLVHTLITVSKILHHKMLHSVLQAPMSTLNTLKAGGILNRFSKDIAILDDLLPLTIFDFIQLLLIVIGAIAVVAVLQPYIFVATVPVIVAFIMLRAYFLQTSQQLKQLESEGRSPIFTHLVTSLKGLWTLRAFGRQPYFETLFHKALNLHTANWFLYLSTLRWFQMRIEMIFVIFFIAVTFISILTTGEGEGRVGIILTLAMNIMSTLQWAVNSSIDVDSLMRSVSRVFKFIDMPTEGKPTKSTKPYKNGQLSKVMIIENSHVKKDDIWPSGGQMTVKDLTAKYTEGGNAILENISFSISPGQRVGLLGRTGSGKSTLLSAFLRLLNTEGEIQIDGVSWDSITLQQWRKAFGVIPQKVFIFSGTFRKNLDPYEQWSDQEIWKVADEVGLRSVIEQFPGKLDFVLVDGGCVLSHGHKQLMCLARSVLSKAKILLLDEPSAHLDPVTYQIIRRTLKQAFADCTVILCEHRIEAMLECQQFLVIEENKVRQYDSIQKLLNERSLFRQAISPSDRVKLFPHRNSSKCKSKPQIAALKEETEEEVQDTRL
Kind of assay: HBE assay: Ussing chamber assay of CFTR-mediated short-circuit currents. The format is cell-based. To be noted: for EC50: read-out: HBE EC50. The method in brief:
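CFTR-mediated Isc (μA/cm²) equals the peak response to apical 20 μM forskolin minus the residual after a 20 μM each BPO/GlyH-101/CFTR inhibitor 172 cocktail, recorded in Ussing chambers at Vhold 0 mV, 37 °C, pH 7.4, with 30 μM apical amiloride. Cells were F508del/MF HBE cultures preincubated 18-24 h with corrector (concentration range or 10 μM) plus 1 μM ivacaftor in 20% human serum.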

Where [1] appears, read: HBE assay, read-out: HBE Max activity (%).
Setting [2] is: Table 11, read-out: HBE Max Activity (%).
Where [3] appears, read: Table 12, read-out: HBE Max Activity (%).
Setting [4] is: Table 12, at 10 μM, read-out: HBE Activity at 10 μM (%).
Where [5] appears, read: Table 10, read-out: HBE Max activity (%).
[6] abbreviates: Table 13, at 10 μM, read-out: HBE Activity at 10 μM (%).
[7] abbreviates: HBE assay, 10 μM, read-out: HBE Activity at 10 μM (%).
Where [8] appears, read: Table 13, read-out: HBE Max Activity (%).

Take `Cc1cccc(C)c1-c1cc2nc(n1)NS(=O)(=O)c1cccc(c1)C(=O)N(Cc1ncc(N3CC(OC(C)C)C3)cn1)[C@H](CC(C)(C)C)CO2` [Compound 1404]: the EC50 (HBE assay) was less than 1000 nM. In addition, the Emax under setting [1] is greater than 60%.
In the case of `Cc1cccc(C)c1-c1cc2nc(n1)NS(=O)(=O)c1cccc(c1)C(=O)N(Cc1nccc(OC(C)C)n1)[C@H](CC(C)(C)C)CO2` [Compound 656], the EC50 (Table 11) was less than 1000 nM. The Emax under setting [2] was greater than 60%.
As for `Cc1cccc(C)c1-c1cc2nc(n1)NS(=O)(=O)c1cccc(c1)C(=O)N(Cc1ccn(C3CCCC3)n1)[C@H](CC(C)(C)C)CO2` [Compound 460], where the note is “Table 12”, the EC50 was less than 1000 nM. The Emax under setting [3] was greater than 60%.
Take `Cc1cccc(C)c1-c1cc2nc(n1)NS(=O)(=O)c1cccc(c1)C(=O)N(CC1CC(C)(C)C1)[C@H](CC(C)(C)C)CO2` [Compound 1007]: the activation at 10 µM under setting [4] is greater than 600%.
As to `Cc1ccnc(CN2C(=O)c3cccc(c3)S(=O)(=O)Nc3nc(cc(-c4c(C)cccc4C)n3)OC[C@H]2CC(C)(C)C)n1` [Compound 479], the activation at 10 µM (Table 10, at 10 μM, read-out: HBE activity at 10 (μM) (%)) was greater than 60%. Also, the Emax under setting [5] is greater than 60%.
For `Cc1cccc(C)c1-c1cc2nc(n1)NS(=O)(=O)c1cccc(c1)C(=O)N(Cc1c(F)cc(C3CCOCC3)cc1F)[C@H](CC(C)(C)C)CO2` [Compound 517], under setting [6], the activation at 10 µM is greater than 600%.
With `Cc1cccc(C)c1-c1cc2nc(n1)NS(=O)(=O)c1cccc(c1)C(=O)N(Cc1nc3ccccn3c1C)[C@H](CC(C)(C)C)CO2` [Compound 700], the activation at 10 µM under setting [4] was greater than 600%.
Take `COC[C@@]1(C)CCCN1c1cccc(CN2C(=O)c3cccc(c3)S(=O)(=O)Nc3nc(cc(-c4c(C)cccc4C)n3)OC[C@H]2CC(C)(C)C)n1` [Compound 1510]: under setting [7], the activation at 10 µM was greater than 60%.
`Cc1ccc(C)c(-c2cc3nc(n2)NS(=O)(=O)c2cccc(c2)C(=O)N(Cc2ccc(N4CCCCC4)cn2)[C@H](CC(C)(C)C)CO3)c1C` [Compound 902]: under setting [2], the Emax was less than 30%.
Take `CO[C@@H]1CCN(c2cnc(CN3C(=O)c4cccc(c4)S(=O)(=O)Nc4nc(cc(-c5c(C)cccc5C)n4)OC[C@H]3CC(C)(C)C)nc2)C1` [Compound 623]: the EC50 (Table 11) is less than 1000 nM. Moreover, the Emax under setting [2] is greater than 60%.
Take `Cc1cccc(C)c1-c1cc2nc(n1)NS(=O)(=O)c1cccc(c1)C(=O)N(Cc1cnc(N(C)CCOC(C)C)o1)[C@H](CC(C)(C)C)CO2` [Compound 1460]: under setting [7], the activation at 10 µM is greater than 60%.
Take `Cc1cccc(C)c1-c1cc2nc(n1)NS(=O)(=O)c1cccc(c1)C(=O)N(Cc1ccc(C3CC4(C3)CC(C)(C)C4)cn1)[C@H](CC(C)(C)C)CO2` [Compound 157, (11R)-6-(2,6-Dimethylphenyl)-11-(2,2-dimethylpropyl)-12-[[5-(2,2-dimethylspiro[3.3]heptan-6-yl)-2-pyridyl]methyl]-2,2-dioxo-9-oxa-2λ6-thia-3,5,12,19-tetrazatricyclo[12.3.1.14,8]nonadeca-1(18),4(19),5,7,14,16-hexaen-13-one]: the EC50 (Table 13) is less than 1000 nM. For the same compound, under setting [8], the Emax is greater than 60%.
For the compound `Cc1cccc(C(C)C)c1-c1cc2nc(n1)NS(=O)(=O)c1cccc(c1)C(=O)N(Cc1cnc(C3CCOCC3)cn1)[C@H](CC(C)C)CO2` [Compound 242], the activation at 10 µM under setting [4] is greater than 600%.
For the compound `Cc1cccc(C)c1-c1cc2nc(n1)NS(=O)(=O)c1cccc(c1)C(=O)N([C@@H](C)c1ccc(-c3cn[nH]c3)cc1)[C@H](CC(C)(C)C)CO2` [Compound 287], the Emax under setting [5] is greater than 60%.
On to `Cc1cccc(C)c1-c1cc2nc(n1)NS(=O)(=O)c1cccc(c1)C(=O)N(Cc1ncc(C3CCCCC3)cn1)[C@H](CC(C)(C)C)CO2` [Compound 644], for which the EC50 (Table 11) lay in the range of 1000 to 3000 nM. Also, the Emax under setting [2] is greater than 60%.
The matching figures for `COC1CCC(CN2C(=O)c3cccc(c3)S(=O)(=O)Nc3nc(cc(-c4c(C)cccc4C)n3)OC[C@H]2CC(C)(C)C)CC1` (some centres unmarked) [Compound 903]: less than 1000 nM and greater than 60%.
`COC[C@]1(O)CC[C@@H](CN2C(=O)c3cccc(c3)S(=O)(=O)Nc3nc(cc(-c4c(C)cccc4C)n3)OC[C@H]2CC(C)(C)C)CC1` [Compound 907]: the EC50 (Table 10) is less than 1000 nM. Moreover, the Emax under setting [5] is greater than 60%.
For the compound `Cc1cccc(C)c1-c1cc2nc(n1)NS(=O)(=O)c1cccc(c1)C(=O)N(Cc1cccc(N(CC3CCCO3)C(C)C)n1)[C@H](CC(C)(C)C)CO2` (some centres unmarked) [Compound 1445], where the note is “HBE assay”, the EC50 is 1000 to 3000 nM. The Emax under setting [1] is greater than 60%.
In the case of `Cc1ccc(F)c(CN2C(=O)c3cccc(c3)S(=O)(=O)Nc3nc(cc(-c4c(C)cccc4C)n3)OC[C@H]2CC(C)(C)C)n1` [Compound 1113], the EC50 (Table 13) was less than 1000 nM. In addition, the Emax under setting [8] was greater than 60%.
As for `COc1cccc(C)c1-c1cc2nc(n1)NS(=O)(=O)c1cccc(c1)C(=O)N(Cc1ncc(N3CCC(C)(C)C3)cn1)[C@H](CC(C)(C)C)CO2` [Compound 579], the EC50 (Table 12) is less than 1000 nM. Further, the Emax under setting [3] is greater than 60%.
In the case of `Cc1cccc(C)c1-c1cc2nc(n1)NS(=O)(=O)c1cccc(c1)C(=O)N(Cc1cc(C3CC3)on1)[C@H](CC(C)(C)C)CO2` [Compound 1071], the EC50 (Table 11) is less than 1000 nM. For the same compound, the Emax under setting [2] was greater than 60%.
For `Cc1cccc(C)c1-c1cc2nc(n1)NS(=O)(=O)c1cccc(c1)C(=O)N(Cc1cccc(NCC(C)(C)C)n1)[C@H](CC(C)(C)C)CO2` [Compound 471], the Emax under setting [5] is greater than 60%.
Turning to `Cc1cccc(C)c1-c1cc2nc(n1)NS(=O)(=O)c1cccc(c1)C(=O)N(Cc1ncc(C(C)C)s1)[C@H](CC(C)(C)C)CO2` [Compound 705], the 50% effective concentration (EC50) (Table 12) is less than 1000 nM. The Emax under setting [3] was greater than 60%.
On to `COCC(C)N(C)c1ccnc(CN2C(=O)c3cccc(c3)S(=O)(=O)Nc3nc(cc(-c4c(C)cccc4C)n3)OC[C@H]2CC(C)(C)C)n1` (some centres unmarked) [Compound 448], for which the activation at 10 µM under setting [4] is greater than 600%.
On to `Cc1cccc(C)c1-c1cc2nc(n1)NS(=O)(=O)c1cccc(c1)C(=O)N(Cc1ccnc(C(C)C)n1)[C@H](CC(C)(C)C)CO2` [Compound 584], for which the EC50 (Table 12) is less than 1000 nM. In addition, the Emax under setting [3] is greater than 60%.
For `CCNc1cccc(CN2C(=O)c3cccc(c3)S(=O)(=O)Nc3nc(cc(-c4c(C)cccc4C)n3)OC[C@H]2CC(C)(C)C)n1` [Compound 738], for the setting “Table 11”, the EC50 was less than 1000 nM. Moreover, under setting [2], the Emax is greater than 60%.
Consider `COc1ccnc(CN2C(=O)c3cccc(c3)S(=O)(=O)Nc3nc(cc(-c4c(C)cccc4C)n3)OC[C@H]2CC(C)(C)C)n1` [Compound 773], for which the EC50 (Table 10) is less than 1000 nM. Moreover, under setting [5], the Emax is greater than 60%.
Take `Cc1cc(C2COCCO2)cnc1CN1C(=O)c2cccc(c2)S(=O)(=O)Nc2nc(cc(-c3c(C)cccc3C)n2)OC[C@H]1CC(C)(C)C` (some centres unmarked) [Compound 1436]: under setting [7], the activation at 10 µM was greater than 60%. Further, the EC50 (HBE assay) is less than 1000 nM. Besides, the Emax under setting [1] is greater than 60%.
With `Cc1cnc(CN2C(=O)c3cccc(c3)S(=O)(=O)Nc3nc(cc(-c4c(C)cccc4C)n3)OC[C@H]2CC(C)(C)C)nc1N1CCCC1(C)C` [Compound 327], the activation at 10 µM under setting [4] was greater than 600%.
Regarding `Cc1cccc(C)c1-c1cc2nc(n1)NS(=O)(=O)c1cccc(c1)C(=O)N(Cc1ccc(C(C)(C)C)nc1)[C@H](CC(C)(C)C)CO2` [Compound 1074], the Emax under setting [5] was greater than 60%.
Consider `Cc1cccc(C)c1-c1cc2nc(n1)NS(=O)(=O)c1cccc(c1)C(=O)N(CC1(C(=O)O)CC1)[C@H](CC(C)(C)C)CO2` [Compound 450], for which, under setting [4], the activation at 10 µM lay within 30 to 60%. Further, the EC50 (Table 12) is less than 1000 nM.
`Cc1cccc(C)c1-c1cc2nc(n1)NS(=O)(=O)c1cccc(n1)C(=O)N(Cc1cccc(N3CCCC3C)n1)[C@H](CC(C)(C)C)CO2` (some centres unmarked) [Compound 1127]: the EC50 (Table 13) was less than 1000 nM. The Emax under setting [8] is greater than 60%.
On to `Cc1cccc(C)c1-c1cc2nc(n1)NS(=O)(=O)c1cccc(c1)C(=O)N(Cc1cncc(N3CC[C@@H]4CCC[C@@H]43)n1)[C@H](CC(C)(C)C)CO2` [Compound 1542], for which the activation at 10 µM under setting [7] is greater than 60%.
On to `Cc1cccc(C)c1-c1cc2nc(n1)NS(=O)(=O)c1cccc(c1)C(=O)N(Cc1ccc(C(=O)O)cn1)[C@H](CC(C)(C)C)CO2` [Compound 247], for which the activation at 10 µM under setting [6] fell in the range of 30 to 60%.
As to `COCC1CCCN1c1cccc(CN2C(=O)c3cccc(c3)S(=O)(=O)Nc3nc(cc(-c4c(C)cccc4C)n3)OC[C@H]2CC(C)(C)C)n1` (stereo partly drawn) [Compound 129, (11R)-6-(2,6-Dimethylphenyl)-11-(2,2-dimethylpropyl)-12-[[6-[2-(methoxymethyl)pyrrolidin-1-yl]-2-pyridyl]methyl]-2,2-dioxo-9-oxa-2λ^6-thia-3,5,12,19-tetrazatricyclo[12.3.1.14,8]nonadeca-1(18),4(19),5,7,14,16-hexaen-13-one], the EC50 (Table 10) was less than 1000 nM. Also, the activation at 10 µM (read-out: HBE Activity at 10 μM (%)) was greater than 60%. Where the note is “read-out: HBE Max activity (%)”, the Emax is greater than 60%.
Regarding `COC1(C)CCN(c2ccc(CN3C(=O)c4cccc(c4)S(=O)(=O)Nc4nc(cc(-c5c(C)cccc5C)n4)OC[C@H]3CC(C)(C)C)nc2)CC1` [Compound 1059], the EC50 (Table 13) is less than 1000 nM. For the same compound, the Emax under setting [8] was greater than 60%.
Turning to `Cc1cccc(C)c1-c1cc2nc(n1)NS(=O)(=O)c1cccc(c1)C(=O)N(Cc1ccc(OC(C)C)nc1)[C@H](CC(C)(C)C)CO2` [Compound 880], the activation at 10 µM under setting [4] is greater than 600%.
As for `Cc1cccc(C)c1-c1cc2nc(n1)NS(=O)(=O)c1cccc(c1)C(=O)N(CC(=O)N1CCC3(CCC3)C1)[C@H](CC(C)(C)C)CO2` [Compound 165], the activation at 10 µM under setting [6] is greater than 600%.
